One series has as its target T1, human GCGR (hGCGR) (Homo sapiens, UniProt P47871).
T1 construct: expressed in transfected cells
The series is described as follows: Inhibition of glucagon-stimulated cAMP production in intact CHO cells expressing human GCGR. It is filed as cell-based. An excerpt: Transfected Chinese hamster ovary (CHO) cell lines were acquired and maintained as previously described, [20]. These included separate cell lines stably expressing human GCGR (hGCGR), mouse GCGR, rhesus GGCR, glucose-dependent insulinotropic peptide receptor (GIPR), GLP-1 receptor (GLP-1R), pituitary adenylate cyclase-activating polypeptide receptor type 1 (PAC1R), and vasoactive adenylate cyclase-activating polypeptide receptor type 2 (VPAC2R). Inhibition of glucagon binding to hGCGR was assayed in cell membranes prepared from the line of CHO cells that expressed the hGCGR. Functional antagonism was assayed by measuring the production of cAMP in intact CHO cells stimulated by agonists specific for their cognate receptors (i.e., glucagon for GCGR-expressing cell lines, GIP for the GIPR-expressing line, etc.). Primary human hepatocytes were obtained from In Vitro Technologies (Baltimore, MD) and glucagon-stimulated glycogenolysis was studied in these as previously described.
On the technique in general: Cyclic AMP is a second messenger, typically raised through Gs and lowered through Gi signalling.

The target of the next series is T2, rhesus GCGR (Macaca mulatta, UniProt A0A1D5QZY8).
T2 construct: expressed in transfected cells
T2 sequence (A0A1D5QZY8 27-491): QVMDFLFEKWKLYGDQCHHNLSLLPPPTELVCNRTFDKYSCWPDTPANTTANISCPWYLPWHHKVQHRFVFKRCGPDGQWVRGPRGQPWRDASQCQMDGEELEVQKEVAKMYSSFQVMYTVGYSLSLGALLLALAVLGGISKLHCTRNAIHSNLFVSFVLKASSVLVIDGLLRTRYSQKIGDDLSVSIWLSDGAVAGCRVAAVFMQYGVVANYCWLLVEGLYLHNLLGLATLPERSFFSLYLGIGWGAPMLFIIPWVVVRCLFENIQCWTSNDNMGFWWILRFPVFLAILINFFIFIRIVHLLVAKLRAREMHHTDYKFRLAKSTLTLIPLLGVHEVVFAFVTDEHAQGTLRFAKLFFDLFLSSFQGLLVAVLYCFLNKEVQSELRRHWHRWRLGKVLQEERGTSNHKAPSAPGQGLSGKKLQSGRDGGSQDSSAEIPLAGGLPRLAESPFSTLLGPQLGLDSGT
The series is described as follows: Inhibition of glucagon-stimulated cAMP production in CHO cells expressing rhesus GCGR. It is filed as cell-based.

The test system of the next series is rhesus monkey. The experiment in a line: Blunting of glucagon-induced blood glucose excursion in rhesus monkey. The class given is in vivo. The conditions noted are these: 1 mg/kg 4 h before 15 µg/kg glucagon i.m. On the procedure:
In mouse studies of glucagon-induced excursions in blood glucose, animals were dosed orally with vehicle (10 mL/kg 0.5% aqueous methylcellulose) or GRA1 one hour prior to challenge by intraperitoneal injection of 15 µg/kg glucagon (Eli Lilly, Indianapolis, IN) or vehicle, [20]. In the studies in monkey, GRA1 or vehicle was administered to chair-restrained animals via a nasogastric tube 4 h prior to intramuscular injection of 15 µg/kg glucagon. Blood glucose measurements were made using a OneTouch glucometer (Lifescan, Milpitas, CA).
Figure 3 Blunting of glucagon-induced blood glucose excursions by GRA1 treatment in the (A) hGCGR mouse and (B) rhesus monkey. In (A), mice (n = 8) were administered vehicle or 3, 10 or 30 mg/kg GRA1, then challenged 1 h later (time 0) by intraperitoneal injection of 15 µg/kg glucagon or vehicle. Pharmacokinetic analysis determined that these animals had mean plasma GRA1 concentrations of 0.4, 0.9, and 4.7 µM, respectively, at 1 h postdose. In (B), monkeys (n = 4) were administered 1 mg/kg GRA1 4 h prior to intramuscular injection of 15 µg/kg glucagon or vehicle. At 1 h postdose, the mean plasma GRA1 concentration in these animals was 0.2 µM. *p<0.05; **p<0.01; and ***p<0.001 vs. glucagon-treated control animals.

Another series relates to DIO hGCGR mice. The experiment in a line: Chronic GRA1 treatment of diet-induced obese (DIO) hGCGR mice. It is filed as in vivo, hGCGR mouse. Conditions: for Free fatty acid, terminal plasma / Insulin, terminal plasma / LDL cholesterol, terminal plasma / Glucagon, terminal plasma / Triglyceride, terminal plasma / Non-LDL cholesterol, terminal plasma / Cholesterol, terminal plasma: 10 weeks; for Free fatty acid, terminal plasma: control 1.04±0.13; for Insulin, terminal plasma: control 8.5±2.0; for LDL cholesterol, terminal plasma: control 19.6±2.3; for Glucagon, terminal plasma: control 164±24; for Triglyceride, terminal plasma: control 181±11; for Non-LDL cholesterol, terminal plasma: control 205±12; for Cholesterol, terminal plasma: control 233±15. The source says: The present study made use of a line of hGCGR-expressing mouse (“hGCGR mouse”) generated previously by substituting the hGCGR gene for the mouse GCGR gene. These mice were crossed with C57BL/6J.ob/+ mice (Jackson Laboratories, Bar Harbor, ME) to obtain an hGCGR.ob/+ mouse line. The hGCGR.ob/+ mice were then intercrossed to obtain hGCGR.ob/ob, hGCGR.ob/+, and hGCGR.+/+ mice (with the hGCGR.ob/+ and hGCGR.+/+ mice serving as littermate controls). […] obese (DIO) hGCGR mice were generated by maintaining hGCGR mice on a high-fat diet (HFD) in which 45–60% of calories were in fat (Product S3282, Bio-Serv, Frenchtown, NJ). High-fat-diet-streptozotocin-treated (HFD/STZ) diabetic mice were generated in-house as previously described.
Animals were dosed chronically with GRA1 and the DPP-4 inhibitor des-fluoro-sitagliptin by administering these agents as food admixtures. The admixtures were prepared in-house and by Research Diets (New Brunswick, NJ), with drug concentrations adjusted weekly on the basis of average food consumption and animal weight to provide targeted daily doses. In the GRA1 experiments, the targeted doses were 3, 6, 10, and 30 mg/kg•day. In des-fluoro-sitagliptin experiments, the targeted dose was 200 mg/kg•day, a relatively high amount necessary because this compound has a half-life in rodents of 1–2 h.
Plasma glucagon and active GLP-1 were measured using commercial ELISA kits (Linco Research Immunoassay, St. Charles, MO). […] Plasma insulin was determined by ELISA with a commercial kit (ALPCO Diagnostics, Windham, NH). Plasma concentrations of glycated hemoglobin A1c (HbA1c) were measured using a Micromat II test kit from Bio-Rad Laboratories (Hercules, CA). Total cholesterol, low-density lipoprotein cholesterol (LDL-c) and non-LDL-c, and aspartate aminotransferase were measured using a Roche P Modular Clinical Chemistry analyzer (Indianapolis, IN).
Figure 4 GRA1 lowers blood glucose in the DIO hGCGR and hGCGR.ob/ob mouse. Mean (±SEM) blood glucose concentrations in (A) non-fasted and (B) fasted DIO hGCGR mice treated with approximately 3 and 10 mg/kg·day GRA1 provided as a food admixture. (Additional data from this study are in Table 2). (C) Mean (±SEM) blood glucose concentrations in the hGCGR.ob/ob mouse following single oral doses of 1, 3, or 10 mg/kg GRA1 or vehicle. (D) Mean (±SEM) non-fasted blood glucose concentrations in hGCGR.ob/ob mice treated for 2–8 weeks with control diet or 10 mg/kg·day GRA1 administered as diet admixture. *p<0.05, **p<0.01, and ***p<0.001 in timepoint-matched comparisons with controls; n = 8 in each group.

Marks after values point to notes of the source that are not given here.

T1 sequence (P47871 26-477): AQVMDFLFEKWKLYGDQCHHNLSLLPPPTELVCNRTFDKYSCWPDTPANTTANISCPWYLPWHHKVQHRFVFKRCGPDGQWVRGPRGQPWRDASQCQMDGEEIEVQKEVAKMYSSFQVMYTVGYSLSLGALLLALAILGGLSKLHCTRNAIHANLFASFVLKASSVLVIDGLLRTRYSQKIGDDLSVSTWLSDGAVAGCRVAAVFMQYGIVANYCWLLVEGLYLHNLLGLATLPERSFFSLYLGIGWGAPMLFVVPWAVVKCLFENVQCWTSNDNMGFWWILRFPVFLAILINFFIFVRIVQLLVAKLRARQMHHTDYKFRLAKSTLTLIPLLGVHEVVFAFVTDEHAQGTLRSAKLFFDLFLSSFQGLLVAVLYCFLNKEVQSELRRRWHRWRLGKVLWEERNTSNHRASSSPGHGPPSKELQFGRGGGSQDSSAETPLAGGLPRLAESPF
Experimental for rhesus GCGR: Transfected Chinese hamster ovary (CHO) cell lines were acquired and maintained as previously described [17], [20]. These included separate cell lines stably expressing human GCGR (hGCGR), mouse GCGR, rhesus GGCR, glucose-dependent insulinotropic peptide receptor (GIPR), GLP-1 receptor (GLP-1R), pituitary adenylate cyclase-activating polypeptide receptor type 1 (PAC1R), and vasoactive adenylate cyclase-activating polypeptide receptor type 2 (VPAC2R). […] Functional antagonism was assayed by measuring the production of cAMP in intact CHO cells stimulated by agonists specific for their cognate receptors (i.e., glucagon for GCGR-expressing cell lines, GIP for the GIPR-expressing line, etc.).

The term IC50 denotes the concentration that inhibits the measured activity by half. The molecule `COc1ccc2cc(-c3cc(-c4cc(C(F)(F)F)ccc4F)nn3[C@@H](C)c3ccc(C(=O)NCCC(=O)O)cc3)ccc2c1` [GRA1, N-[4-((1S)-1-{3-(2-fluoro-5-trifluoromethylphenyl)-5-[6-methoxynaphth-2-yl]-1H-pyrazol-1-yl}ethyl)benzoyl]-β-alanine] returned an IC50 against human GCGR (hGCGR) of 12 nM. In addition, at rhesus GCGR, the midpoint of inhibition, the IC50, lay at 15 nM. Moreover, the “Reduction of magnitude of glucagon-stimulated blood glucose excursion” value with rhesus monkey was “about 50%”. The “Effect on blood glucose” value in the series on DIO hGCGR mice (1–10 weeks, 3 or 10 mg/kg•day) is recorded as “significant, sustained reductions in blood glucose”. For the same molecule, in the series with DIO hGCGR mice (3 or 10 mg/kg•day (data not shown)), the “Food intake and body weight” value was “not affected”. The “Increase of plasma glucagon” value in the series on DIO hGCGR mice (3 or 10 mg/kg•day (either dose)) is on record as “approximately 2 fold”. In addition, in the series with DIO hGCGR mice (3 mg/kg•day), the “Free fatty acid, terminal plasma” value was 0.84 ± 0.08 mM; the “Insulin, terminal plasma” value is 4.2 ± 1.1 ng/mL; the “LDL cholesterol, terminal plasma” value is 25.4±2.9 mg/dLl; the “Glucagon, terminal plasma” value is recorded as 374±53* pg/mL. In the series with DIO hGCGR mice (3 mg/kg•day), the “Triglyceride, terminal plasma” value is 141±13* mg/dL; the “Non-LDL cholesterol, terminal plasma” value is 216 ± 16 mg/dL; the “Cholesterol, terminal plasma” value worked out at 255 ± 17 mg/dL. Further, in the series on DIO hGCGR mice (10 mg/kg•day), the “Free fatty acid, terminal plasma” value is reported as 0.69±0.04* mM; the “Insulin, terminal plasma” value was determined as 5.7 ± 1.4 ng/mL; the “LDL cholesterol, terminal plasma” value amounted to 19.4±2.4 mg/dLl; the “Glucagon, terminal plasma” value amounted to 343 ± 85 pg/mL. Besides, in the series on DIO hGCGR mice (10 mg/kg•day), the “Triglyceride, terminal plasma” value is reported as 122±10** mg/dL; the “Non-LDL cholesterol, terminal plasma” value was 186 ± 7 mg/dL; the “Cholesterol, terminal plasma” value is 213 ± 8 mg/dL. For the same molecule, in the series with DIO hGCGR mice (treated vs control (data not shown)), the “Islet morphology and ratio of insulin-positive to glucagon-positive cells (pancreas immunohistochemistry)” value is on record as “no significant differences”.

The values are drawn from PMC3501516, “Anti-Diabetic Efficacy and Impact on Amino Acid Metabolism of GRA1, a Novel Small-Molecule Glucagon Receptor Antagonist” (PLoS ONE, 2012).
